{"source": "patent US20100279413A1", "about": "“APPLICATIONS OF UBIQUINONES AND UBIQUINOLS” (ZYMES, LLC, priority 2008, published 2010)", "key": {"[1]": {"tested_on": "cultured fetal rat dorsal root ganglia (DRGs)", "test": "In vitro model of ATN: NRTI (d4T/ddI) neurotoxicity in cultured fetal rat DRGs", "format": "cell-based", "description": "Objective: To examine the safety and preventative efficacy of HQO™ using cultured fetal rat dorsal root ganglia (DRGs) as an in vitro model of ATN.\nIn a separate experiment, DRGs were exposed to a higher dose (50 μM) of d4T alone or with 10 or 100 nM HQO™."}, "[2]": {"tested_on": "cultured fetal rat DRGs", "test": "CoQ10 / HQO dose response: neurite growth and survival of cultured fetal rat DRGs", "format": "cell-based", "settings": "for mean neurite length: day 16, controls 4.84 mm, p<0.0001", "description": "In fact, by day 11, the length of neurites around DRGs was longer if the DRGs were cultured with CoQ10 (concentrations ranged from 0.1-50 uM) compared with control DRGs, p<0.0001 for all. FIG. 1A, 1B, 1C.\nThe aim of the second experiment was to confirm that exposure to 50 uM CoQ10 is not toxic to cultured fetal rat DRGs and also to see if even higher concentrations may be used safely. Eight DRGs (2 plates of 4 DRGs each) were cultured under each of the following conditions: • Control • 50 uM CoQ10 • 75 uM CoQ10 • 100 uM CoQ10\nThis experiment was carried on for 22 days, which is about as long as DRGs can be sustained in this model, even under control conditions. The experiment was continued for this time period to confirm that CoQ10 remains non-toxic in this model over time.\nNeurite lengths around each DRG were measured at four representative points (giving a total of 32 measures at each exposure concentration at each time point) on days 1, 2, 5, 8, 12, 16 and 22.\nA third experiment measured growth of DRG's with varying doses of HQO™, 0.1, 10, 100 uM CoQ10. This experiment was done in DRG's isolated from a new rat, which accounts for the difference in neurite length compared to experiments 1 and 2. […] (FIG. 1E)"}}, "data": [{"smiles": "Cc1cn([C@H]2C=C[C@@H](CO)O2)c(=O)[nH]c1=O", "note": "[d4T, stavudine]", "values": [{"measurement": "toxicity in DRGs (NRTI alone)", "setting": "[1]; 50 μM d4T alone, by day 8", "result": "evident"}]}, {"smiles": "CC(=O)O[C@H](CC(=O)[O-])C[N+](C)(C)C", "note": "[LAC, L-acetyl carnitine]", "values": [{"measurement": "NRTI (ddI)-induced neurotoxicity of fetal rat DRGs", "setting": "[1]; heading of Example 3, no data given", "result": "Prevents"}]}, {"smiles": "COC1=C(OC)C(=O)C(C/C=C(\\C)CC/C=C(\\C)CC/C=C(\\C)CC/C=C(\\C)CC/C=C(\\C)CC/C=C(\\C)CC/C=C(\\C)CC/C=C(\\C)CC/C=C(\\C)CCC=C(C)C)=C(C)C1=O", "note": "[CoQ10, coenzyme Q10]", "values": [{"measurement": "length of neurites around DRGs compared with control DRGs", "setting": "[2]; day 11, 0.1-50 uM, p<0.0001 for all", "result": "longer"}, {"measurement": "mean neurite length", "setting": "[2]; 75 uM (non-viable DRG excluded)", "result": 6.20, "unit": "mm"}, {"measurement": "mean neurite length", "setting": "[2]; 100 uM", "result": 6.07, "unit": "mm"}, {"measurement": "toxicity in cultured fetal rat DRGs", "setting": "[2]; first dose finding experiment, concentrations up to 50 uM", "result": "no evidence of toxicity"}, {"measurement": "toxicity in cultured fetal rat DRGs", "setting": "[2]; second experiment, 50, 75, 100 uM, up to 22 days", "result": "no evidence of toxicity"}]}]}
